Assays:
[1] = tested on: IL-1β; test: LPS-activated cytokine release from human primary monocytes (xMAP Luminex): IL-1β; type: cell-based; settings: 24 hours
Method: (§1) Cytokine release from monocytes was measured and assessed in order to determine the anti-inflammatory effects of cetylated fatty acids such as 1-TDC and non-cetylated fatty acids such as myristic acid. Human primary monocytes were provided by healthy subjects (n=7) who were not taking medication, had no medical condition, and no periodontal or gingival inflammation. None of the subjects were smokers and all subjects were of Caucasian origin with an age range of 24-51 years old. All patient samples were obtained after the approval of the Institutional Review Board at Boston University Medical Center.
(§2) Fresh peripheral venous blood ([…]) was obtained by venipuncture into heparinized (10 U/mL) glass tubes. Monocytes were isolated using Ficoll-Hypaque density gradient centrifugation and separated from the other mononuclear cells (e.g., lymphocytes) by adherence for over 2 hours. Pure cell cultures were treated with various doses (10^−5-10^−9 M) of various types of fatty acids such as 1-TDC and myristic acid for 30 minutes. Vehicle (5% ethyl alcohol), which was used to dissolve the compound into an aqueous preparation, was used as the negative control while dexamethasone (1 nM) was used as the positive control. After incubation with the test compound, half of the samples were treated with LPS from E. coli (100 ng/mL) as the activator of cell cytokine release over various time points (24 hours) at 37° C. under 5% CO2. Supernatants were collected and stored at −80° C. until analyzed. Each sample was prepared in triplicate. Cytokine release (IL-1β, TNF-α, IL-6, IL-12, IL-8, and MCP-1) was analyzed by xMAP multiplexing technology using Luminex 100 Platform. Data was presented as % inhibition over the vehicle's effect of LPS-mediated cell activation. Dexamethasone inhibition was taken as 100% inhibition.
(§3) Cytokine release data were gathered at 6, 24, and 48 hour time points for monocyte/macrophages (FIGS. 3-5). Each experiment was repeated at least 3 times and data was presented as percentage of inhibition over the vehicle's effect of LPS-mediated cell activation.

[2] = tested on: TNF-α; test: LPS-activated cytokine release from human primary monocytes (xMAP Luminex): TNF-α; type: cell-based
Method: as §1, §2, §3

[3] = tested on: IFN-γ; test: CD3/CD28-activated cytokine release from human primary T-lymphocytes: IFN-γ; type: cell-based; settings: FIG. 7
Method: Cytokine release from T-lymphocytes was measured and assessed in order to determine the anti-inflammatory effects of cetylated fatty acids such as 1-TDC and uncetylated fatty acids such as myristic acid. More specifically, the following compounds were tested: 1-TDC, 2-TDC, cetyl myristate (CM), myristic acid (MA), palmityl myristate (PM), palmityl oleate (PO), and palmityl myristoleate (PMO). For this experiment, peripheral blood mononuclear cells were isolated from healthy donors (n=8) with no known medication use by Ficoll-Hypaque density gradient centrifugation. Primary T-lymphocytes were separated from other mononuclear cells (e.g., monocytes) by negative selection using magnetic cell sorting (Dynal, Invitrogen) and pure cell cultures were treated with various doses of tested compounds for 30 minutes. The tested doses were 10^−5-10^−9M. Vehicle, which was used to dissolve the compounds into an aqueous preparation, was used as the negative control while dexamethasone (1 nM) was used as the positive control. After the incubation with test compounds, half the samples were treated with DynaBeads (Dynal, Invitrogen) coated with CD3 and CD28 antibodies as the activator of cell cytokine release. Cells were incubated over various time points at 37° C. under 5% CO2. Supernatants were collected at 24 and 48 hours and were stored at −80° C. until analyzed. Each sample was prepared in triplicates. The cytokine release was analyzed by xMAP multiplexing technology using Luminex 100 platform. This method allowed simultaneous analyses of all the cytokines proposed in this experiment. The following T-lymphocyte associated cytokines: IFN-γ, IL-2, IL-10, IL-5, and IL-4 were assessed. […] A paradigm shift between the cytokines by Th1 and Th2 indicates a more or less inflammatory process depending on which of these cytokines are increased. While the validity of this shift is questioned in different diseases and/or infections, the central role of T cells in the progression of inflammation is still evaluated on the cytokine release by these subsets of lymphocytes. Data was gathered throughout 24- and 48-hour time points for T-lymphocyte mediated release. Each experiment was repeated at least 3 times and data was presented as %-inhibition over the vehicle's effect of LPS-mediated cell activation.

[4] = tested on: P. gingivalis A7436; test: Antibacterial activity: viability of P. gingivalis by Live/Dead BacLight staining and flow cytometry; type: cell-based, Porphyromonas gingivalis; settings: for antibacterial capacity (percentage of dead bacteria) compared with chlorhexidine: FIG. 1, positive control chlorhexidine (CHX) 0.04%
Method: P. gingivalis A7436 was cultured on laced blood paromomycin agar plates and then transferred to Schaedler's broth. All cultures were grown at 37° C. under anaerobic conditions. In order to dissolve the 1-TDC and MA in an aqueous medium that can be utilized in carrying out the experiments, the following ingredients were used: ethanol (EtOH) and Methyl-β-cyclodextrin (Sigma-Aldrich, St. Louis, Mo.). More specifically, 750.0 mg of Methyl-β-cyclodextrin was dissolved in 5.0 mL of nano-pure water to get a concentration 150.0 mg/mL (MBC). The MBC solution was stored in the refrigerator at a temperature of 4° C. and was returned to room temperature before use. MA was prepared by dissolving 90.0 mg in 3.0 mL of ETOH, 2.4 mL of MBC, and 24.6 mL of SB in a sterile tube. The entire mixture was placed in a hot bath at 30° C. for 30 minutes. The final concentration of MA was 3.0 mg/mL.
2×10^7 cells were transferred to 5 mL culture tubes and treated with either 1-TDC or MA (1.0 mg/ml, 0.7 mg/mL, 0.5 mg/mL, 0.3 mg/mL, 0.1 mg/mL) or corresponding vehicle concentrations. A negative control was treated with additional Schaedler's broth. Tubes were incubated in anaerobic jars at 37° C. for several time points between 4-72 hours.
After incubation, viability of the P. gingivalis cells was assessed. 1 mL of each sample was removed and spun down. Bacteria were resuspended in 1 mL of 0.85% NaCl solution. To generate a standard curve, half of the bacteria that was not treated with vehicle or compound were heat-killed for one hour and then mixed with live cells in known proportions (0%, 25%, 50%, 75% and 100% alive). The 100% live cells were used as the negative control. To assess the viability, a fluorescent based kit was used. Live/Dead BacLight Bacterial Viability Kit (Invitrogen L7012) allows for differentiation between alive and dead bacteria at a highly accurate and sensitive way. […]
Samples were then run on the flow cytometer (FACScan). […] From these established regions, percent viability of the experimental samples were determined.

[5] = tested on: IL-12; test: LPS-activated cytokine release from human primary monocytes (xMAP Luminex): IL-12; type: cell-based; settings: 24 hours
Method: as §1
(§4) Fresh peripheral venous blood ([…]) was obtained by venipuncture into heparinized (10 U/mL) glass tubes. Monocytes were isolated using Ficoll-Hypaque density gradient centrifugation and separated from the other mononuclear cells (e.g., lymphocytes) by adherence for over 2 hours. Pure cell cultures were treated with various doses (10^−5-10^−9 M) of various types of fatty acids such as 1-TDC and myristic acid for 30 minutes. […] Supernatants were collected and stored at −80° C. until analyzed. […] Cytokine release (IL-1β, TNF-α, IL-6, IL-12, IL-8, and MCP-1) was analyzed by xMAP multiplexing technology using Luminex 100 Platform. […]

[6] = tested on: MCP-1; test: LPS-activated cytokine release from human primary monocytes (xMAP Luminex): MCP-1; type: cell-based
Method: as §1, §2, §3

[7] = tested on: IL-6; test: LPS-activated cytokine release from human primary monocytes (xMAP Luminex): IL-6; type: cell-based; settings: 24 hours
Method: as §1, §4

[8] = tested on: IL-2; test: CD3/CD28-activated cytokine release from human primary T-lymphocytes: IL-2; type: cell-based; settings: 24 hour period; FIG. 8
Method: (§5) Cytokine release from T-lymphocytes was measured and assessed in order to determine the anti-inflammatory effects of cetylated fatty acids such as 1-TDC and uncetylated fatty acids such as myristic acid. More specifically, the following compounds were tested: 1-TDC, 2-TDC, cetyl myristate (CM), myristic acid (MA), palmityl myristate (PM), palmityl oleate (PO), and palmityl myristoleate (PMO). For this experiment, peripheral blood mononuclear cells were isolated from healthy donors (n=8) with no known medication use by Ficoll-Hypaque density gradient centrifugation. Primary T-lymphocytes were separated from other mononuclear cells (e.g., monocytes) by negative selection using magnetic cell sorting (Dynal, Invitrogen) and pure cell cultures were treated with various doses of tested compounds for 30 minutes. The tested doses were 10^−5-10^−9M. […] Supernatants were collected at 24 and 48 hours and were stored at −80° C. until analyzed. […] The cytokine release was analyzed by xMAP multiplexing technology using Luminex 100 platform. […] The following T-lymphocyte associated cytokines: IFN-γ, IL-2, IL-10, IL-5, and IL-4 were assessed. […] While the validity of this shift is questioned in different diseases and/or infections, the central role of T cells in the progression of inflammation is still evaluated on the cytokine release by these subsets of lymphocytes. […]

[9] = tested on: periodontal disease established by P. gingivalis; test: Rabbit periodontal disease established by P. gingivalis, topical treatment; type: in vivo, New-Zealand White rabbits
Description: Fifteen New-Zealand White rabbits are distributed into 3 groups: (1)
No treatment (5 animals), (2) Placebo treatment (5 animals), and (3) myristic acid treatment (5 animals). In all animals, periodontal disease is established by P. gingivalis application every-other-day over a 6-week period. At 6 weeks, P. gingivalis application is terminated and topical use of the myristic acid and placebo agents is initiated for a second 6 weeks at which time animals are sacrificed. Morphometric, radiographic, and histologic evaluations are performed. Histologic sections are stained with hematoxylin-eosin, and tartrate-resistant acid phosphatase (TRAP) for descriptive histology and osteoclast activity. In addition, osteocalcin staining is used to detect osteoblast activity.

[10] = tested on: IL-8; test: LPS-activated cytokine release from human primary monocytes (xMAP Luminex): IL-8; type: cell-based; settings: 24 hours
Method: as §1, §4

[11] = tested on: IL-10; test: CD3/CD28-activated cytokine release from human primary T-lymphocytes: IL-10; type: cell-based; settings: 24 and 48 hours; FIG. 9
Method: as §5

[12] = tested on: IL-4; test: CD3/CD28-activated cytokine release from human primary T-lymphocytes: IL-4; type: cell-based; settings: 24 and 48 hours; FIG. 10
Method: as §5

[13] = tested on: IL-5; test: CD3/CD28-activated cytokine release from human primary T-lymphocytes: IL-5; type: cell-based; settings: 24 and 48 hours; FIG. 11
Method: as §5

CCCC/C=C\CCCCCCCC(=O)OCCCCCCCCCCCCCCCC [Palmityl Myristoleate, palmityl myristoleate]
monocyte-mediated IL-1β release, inhibition [1]: significantly and fully inhibited | monocyte-mediated TNF-α release, inhibition (text) ([2]; 24 hours): significantly and fully inhibited | effect on IFN-γ production by T-lymphocytes ([3]; 24 hour mark): inhibit | effect on IFN-γ production by T-lymphocytes ([3]; 48 hour mark): inhibit

CCCCCCCCCCCCCC(=O)[O-].[Na+] [sodium myristate]
antibacterial capacity (percentage of dead bacteria) compared with chlorhexidine [4]: comparable level of antibacterial capacity as seen with chlorhexidine

CCCCCCCCCCCCCC(=O)O [Myristic Acid, Myristic acid]
monocyte-mediated IL-1β release, inhibition [1]: significantly and dose dependently inhibited | antibacterial capacity (percentage of dead bacteria) compared with chlorhexidine [4]: comparable level of antibacterial capacity as seen with chlorhexidine | dose dependence of antibacterial activity against P. gingivalis ([4]; FIG. 2, increases dramatically at 0.1 mg/ml and higher doses (e.g., 1 mg/ml)): dose-dependent | monocyte-mediated IL-12 release, inhibition [5]: significantly and dose dependently inhibited | monocyte-mediated MCP-1 release, inhibition ([6]; 24 hours): significantly and dose dependently inhibited | monocyte-mediated IL-6 release, inhibition [7]: significantly and dose dependently inhibited | effect on T-lymphocyte IL-2 production [8]: activated | monocyte-mediated TNF-α release, inhibition (text) ([2]; 24 hours): all cytokines except TNF-α | histomorphometric tissue and bone level vs placebo and no treatment ([9]; 6 weeks): significant changes in tissue and bone level | inflammatory changes in hematoxylin-eosin stained sections ([9]; 6 weeks): complete reversal of inflammatory changes | reformation of soft and bone tissues lost to periodontal inflammation ([9]; 6 weeks): reform soft and bone tissues | progression of gingival inflammation and bone destruction induced by P. gingivalis ([9]; 6 weeks after 6 weeks of disease induction): stops the progression | osteoclastic activity ([9]; 6 weeks, TRAP staining): significantly suppresses | osteoblastic activity ([9]; 6 weeks, osteocalcin staining): increased osteoblastic activity | monocyte-mediated IL-8 release, inhibition [10]: significantly and dose dependently inhibited | activation of IFN-γ release by T-lymphocytes ([3]; over 24 and 48 hours): capacity to activate IFN-γ release by T cells and this effect increased over time

CCCCCCCCCCCCCCCCOC(=O)CCCCCCCCCCCCC [Cetyl Myristate, cetyl myristate]
monocyte-mediated MCP-1 release, inhibition ([6]; 6 hours): inhibited | monocyte-mediated MCP-1 release, inhibition ([6]; 24 hours): inhibited | T-lymphocyte release of IL-10 (activation) [11]: most potent activator | monocyte-mediated TNF-α release, inhibition (text) ([2]; 6 hours): inhibits | monocyte-mediated TNF-α release, inhibition (text) ([2]; 24 hours, listed as Cetyl myristate): inhibition on TNF-α continued | monocyte-mediated IL-8 release, inhibition [10]: inhibited | IL-4 generation by human T cells (activation) [12]: most potent compound tested | dose dependence of activation of T-cell IFN-γ release ([3]; 10^−5-10^−9M): dose-dependent activation | IL-5 release by human T cells (activation) [13]: most potent activator

CCCCCCCCCCCCCCCCOC(=O)CCCCCCCCCCCCC [Palmityl Myristate, palmityl myristate]
monocyte-mediated TNF-α release, inhibition (text) ([2]; 24 hours, listed as palmityl myristate): blocked TNF-α release, however the inhibition was weaker compared to cetyl myristate

CCCCCCCC/C=C\CCCCCCCC(=O)OCCCCCCCCCCCCCCCC [Palmityl Oleate, palmityl oleate]
monocyte-mediated IL-1β release, inhibition [1]: significantly and fully inhibited | monocyte-mediated TNF-α release, inhibition (text) ([2]; 24 hours): significantly and fully inhibited | effect on IFN-γ production by T-lymphocytes ([3]; 24 hour mark): inhibit

From US20120029078A1, “COMPOSITIONS COMPRISING MYRISTIC ACID AND USES THEREOF” (IMAGENETIX, INC., priority 2010, published 2012)
